“Also recorded” adds a separate entry of the source.
Tested on: ear margin fibroblasts (GEFs) of goat
Assay: induction of transdifferentiation of fibroblasts into mammary epithelial cells with induction medium, cell morphology
Assay type: cell-based
Conditions: for transdifferentiation of fibroblasts into mammary epithelial cells with the inhibitor alone: 8 d, 10 μM SB431542, 5 μM SB525334, 1 μM LDN193189 induction medium alone
Description: 1. The ear margin fibroblasts (GEFs) of goat were isolated and cultured by a tissue adherence method to provide cell materials for subsequent induction.
2. The fibroblasts were inoculated into a 60 mm cell culture dish at a density of 5×10^5, and after culturing for 8 h to 24 h in the high-glucose DMEM+10% FBS (volume percentage), the induction medium BFRTV was replaced, and then cultured at 37° C. for 8 d in a 5% CO2 incubator, where the medium was changed every two days.
3. When cultured to the 8th day, CiMECs can be subcultured and inoculated onto a plate pretreated with Matrix (a volume ratio of Matrix to gelatin was 1:50), and then cultured in a mammary epithelial cell medium, when the cell confluence reached about 90%, the cells were subcultured or frozen for subsequent detection.
Taking the ear margin fibroblasts of Guanzhong dairy goat as an experimental object, the concentration of five small molecule compounds currently used was adjusted, and the concentration of BFRTV was adjusted as a whole under the condition that the basal solution remained unchanged.

| SMILES | transdifferentiation of fibroblasts into mammary epithelial cells with the inhibitor alone | induction of mammary epithelial cells with Repsox alone (R induction medium) (R induction medium, no other small molecule) |
| --- | --- | --- |
| NC(=O)c1ccc(-c2nc(-c3ccc4c(c3)OCO4)c(-c3ccccn3)[nH]2)cc1 [SB431542] | the fibroblasts can be induced into mammary epithelial cells; also recorded: could still induce the transdifferentiation of fibroblasts into mammary epithelial cells |  |
| Cc1cccc(-c2[nH]c(C(C)(C)C)nc2-c2ccc3nccnc3c2)n1 [SB525334] | the fibroblasts can be induced into mammary epithelial cells; also recorded: could still induce the transdifferentiation of fibroblasts into mammary epithelial cells |  |
| c1ccc2c(-c3cnn4cc(-c5ccc(N6CCNCC6)cc5)cnc34)ccnc2c1 [LDN193189] | the fibroblasts can be induced into mammary epithelial cells; also recorded: could still induce the transdifferentiation of fibroblasts into mammary epithelial cells |  |
| Cc1cccc(-c2[nH]ncc2-c2ccc3ncccc3n2)n1 [Repsox] |  | mammary epithelial cells (CiMECs) similar to those by BFRTV induction medium were obtained |

Reference: patent publication US20230066648A1, “METHOD FOR INDUCING TRANSDIFFERENTIATION OF SOMATIC CELLS INTO MAMMARY EPITHELIAL CELLS IN VITRO USING SMALL MOLECULE COMPOUND” (GUANGXI UNIVERSITY, priority 2019, published 2023)
